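All cell lines were grown in 96-well plates and treated with compound for 48 hours. Here, GI50 denotes the concentration required for 50% inhibition of growth. TGI denotes the concentration required for complete inhibition of growth.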

Consider seven molecules from PubChem BioAssay (NCI).

Experiment in all cases: DTP human tumour cell line panel, 48 h
Assay [1] deals with RXF 393 renal.
In assay [2] the test system is CCRF-CEM leukemia.
Assay [3] relates to CAKI-1 renal.
Assay [4] concerns SW-620 colon.
Assay [5] concerns SF-268 CNS.
Assay [6] relates to SK-MEL-5 melanoma.
The subject of assay [7] is SR leukemia.
The subject of assay [8] is SK-OV-3 ovarian.
In assay [9] the test system is A498 renal.
Assay [10] has as its system MDA-MB-231 breast.

A word on the GI50: it is the concentration at which growth is held to half of that of the control. What is called TGI is the concentration at which net growth stops. Read a low TGI as greater sensitivity of the cells. As to `COc1ccc(-c2nc3ccc(-c4nc5ccc(N6CCN(c7ccccc7)CC6)cc5[nH]4)cc3[nH]2)cc1OC`, the GI50 in [1] was 1590 nM; in [3] it was 2180 nM; in assay [4], 1150 nM; in assay [5] it was 2120 nM; in [6], 1470 nM; in assay [7] it was 341 nM. For the same molecule, the figures for the GI50 in [8], in assay [9] and in assay [10] were 5340 nM, 2930 nM and 2480 nM, respectively. Also, the TGI was determined as 3410 nM in [1]; 2540 nM in [2]; 8020 nM in [3]; 2710 nM in assay [4]; 4680 nM in assay [5]; 3310 nM in assay [6]. Also, the concentration for total growth inhibition (TGI) came to 2830 nM in assay [7], 18600 nM in assay [8], 9630 nM in assay [9] and 5050 nM in assay [10].

In the case of `CCCN1C(=O)N(CCC)C2C1NC(=S)N2/N=C/C=C/c1ccccc1OC` (stereo not drawn), the GI50 was 484 nM in assay [1]; 448 nM in assay [2]; 508 nM in assay [3]; 416 nM in assay [4]; 1150 nM in assay [5]; 516 nM in assay [6]. The GI50 is 326 nM in assay [7], 518 nM in assay [8], 203 nM in assay [9] and 2160 nM in assay [10]. In addition, the TGI in assay [1] is 85900 nM; in assay [2], greater than 100000 nM; in assay [3] it was 97500 nM; in assay [4] it was greater than 100000 nM; in assay [5] it was 53400 nM; in [6], 15900 nM. Also, the TGI in assay [7] was greater than 35100 nM; in [8] it was greater than 100000 nM; in assay [9], 1000 nM; in [10], 22500 nM.

In the case of `CC[C@H]1[C@@H]2C=C[C@@H]3[C@H]4C/C=C\C(=O)NCCC[C@@H]5NC(=O)/C(=C(O)/C=C/[C@@H]4C[C@@H]3[C@H]2C[C@H]1C)C5=O`, the 50% growth inhibitory concentration (GI50) in [1] is 236 nM; in [2], 1590 nM; in [4], 2460 nM; in assay [5], 448 nM; in assay [6], 900 nM; in assay [7], 264 nM. The figures for the GI50 in assay [8], in assay [9] and in assay [10] were 1730 nM, 1670 nM and 1300 nM, respectively. Also, the total growth inhibition concentration (TGI) in assay [1] was found to be 840 nM; in assay [2], 4290 nM; in [4] it was 7590 nM; in assay [5], 1860 nM; in [6], 2200 nM; in assay [7], 1940 nM. For the same molecule, the figures for the TGI in [8], in assay [9] and in assay [10] were 3480 nM, 3080 nM and 2660 nM, respectively.

For `COc1cc2c(cc1OCCCNC(=O)c1cccc3c(=O)c4ccccc4[nH]c13)N=C[C@@H]1CCCN1C2=O`, the GI50 in assay [1] is 86.5 nM; in assay [2], less than 10 nM; in [3], 116 nM; in assay [4], less than 10 nM; in assay [5], less than 21.6 nM; in [8] it was 5580 nM. In addition, the concentration for 50% growth inhibition (GI50) in assay [9] and in [10] was less than 10 nM each time. For the same molecule, the concentration for total growth inhibition (TGI) is 301 nM in assay [1]; 571 nM in assay [3]; 23600 nM in assay [4]; 2070 nM in [5]; greater than 45400 nM in assay [7]; greater than 100000 nM in assay [8]. Further, the TGI in [9] was 22.5 nM; in [10], less than 48.4 nM.

As for `C[C@@H]1CC[C@@H]2[C@@H]1[C@H](OC(=O)/C=C/c1ccccc1)[C@]1(C3CCCCC3)C[C@@H](OC(=O)CO)[C@@]2(C)O1`, the 50% growth inhibitory concentration (GI50) is 77.9 nM in assay [1]; 4450 nM in assay [2]; 34.7 nM in assay [3]; 4430 nM in assay [4]; 1480 nM in assay [5]; 2360 nM in [6]. Besides, the GI50 in [7] is 2600 nM; in [8], 6710 nM; in assay [9], 19.1 nM; in assay [10], 2470 nM. For the same molecule, the TGI in [1] was determined as 3160 nM; in [2], 14100 nM; in assay [3], 11000 nM; in assay [4] it was 16900 nM; in [5], 9860 nM; in [6], 6110 nM. Moreover, the TGI in [7] turned out to be 6900 nM; in [8] it was 20200 nM; in [9], 57.2 nM; in assay [10], 6610 nM.

In the case of `COc1cc(Cn2c(-c3ccccc3)c(Cl)c3c2-c2oncc2CC3)cc(OC)c1`, the GI50 in assay [1] is 5960 nM; in assay [2], 3540 nM; in [3] it was 5240 nM; in assay [4], 3700 nM; in assay [5], 9610 nM; in assay [6], 5500 nM. Further, the GI50 in assay [7] is 2920 nM; in [8], 15200 nM; in assay [9], 2960 nM; in [10] it was 11400 nM. Besides, the total growth inhibition concentration (TGI) is 21500 nM in assay [1]; greater than 100000 nM in [2]; greater than 100000 nM in [3]; 19200 nM in [4]; greater than 100000 nM in assay [5]; 19600 nM in [6]. Also, the TGI is 15500 nM in assay [7], greater than 100000 nM in assay [8], 90300 nM in [9] and 44900 nM in assay [10].

Take `COc1cccc2c1C(=O)c1c(O)c3c(c(O)c1C2=O)C[C@](O)(C(=O)CO)C[C@H]3O[C@@H]1C[C@@H](NC(=O)CCCCCN(C)C2(c3ccc(F)cc3)CC3CCC2C3)[C@H](O)[C@@H](C)O1` (stereo partly drawn): the GI50 in [1] is 2710 nM; in assay [2] it was 1130 nM; in assay [3], 6820 nM; in [4] it was 760 nM; in [5], 5380 nM; in [6], 7650 nM. The GI50 is 223 nM in [7], 7460 nM in assay [8], 5920 nM in [9] and 1000 nM in assay [10]. Moreover, the total growth inhibition concentration (TGI) was determined as 10500 nM in assay [1]; 3920 nM in [2]; 13300 nM in assay [3]; 1850 nM in [4]; 14900 nM in [5]; 15600 nM in [6]. The TGI in [7] amounted to 1640 nM; in [8] it was 14700 nM; in [9], 12400 nM; in assay [10], 2630 nM.
